Test results from ChEMBL document CHEMBL4649985, “Generation of a Selective Small Molecule Inhibitor of the CBP/p300 Bromodomain for Leukemia Therapy” (Cancer Res, 2015).
“And” between values parts separate entries of the source, which are not always exact repeats. Equal entries are not always repeated.

How the values were obtained:
[1] = molecular target: Bromodomain-containing protein 9 (Homo sapiens) (UniProt Q9H8M2); conditions: Compound concentration 10.0 uM, Protein concentration 2.0 uM
[2] = molecular target: Tripartite motif-containing protein 66 (Homo sapiens) (UniProt O15016); assay: Thermal Shift Assay. Domain start/stop: M1091-S1218; conditions: Compound concentration 10.0 uM, Protein concentration 2.0 uM
[3] = molecular target: Protein polybromo-1 (Homo sapiens) (UniProt Q86U86); conditions: Compound concentration 10.0 uM, Protein concentration 2.0 uM
[4] = molecular target: Bromodomain and PHD finger-containing protein 3 (Homo sapiens) (UniProt Q9ULD4); conditions: Compound concentration 10.0 uM, Protein concentration 2.0 uM
[5] = molecular target: Transcription initiation factor TFIID subunit 1-like (Homo sapiens) (UniProt Q8IZX4); conditions: Compound concentration 10.0 uM, Protein concentration 2.0 uM
[6] = molecular target: SWI/SNF-related matrix-associated actin-dependent regulator of chromatin subfamily A member 2 (Homo sapiens) (UniProt P51531); conditions: Compound concentration 10.0 uM, Protein concentration 2.0 uM
[7] = molecular target: Nucleosome-remodeling factor subunit BPTF (Homo sapiens) (UniProt Q12830); conditions: Compound concentration 10.0 uM, Protein concentration 2.0 uM
[8] = molecular target: Transcription initiation factor TFIID subunit 1-like (Homo sapiens) (UniProt Q8IZX4); conditions: Compound concentration 10.0 uM, Protein concentration 2.0 uM; remark: listed apart in the source
[9] = molecular target: Bromodomain testis-specific protein (Homo sapiens) (UniProt Q58F21); conditions: Compound concentration 10.0 uM, Protein concentration 2.0 uM
[10] = molecular target: Chromatin remodeling regulator CECR2 (Homo sapiens) (UniProt Q9BXF3); conditions: Compound concentration 10.0 uM, Protein concentration 2.0 uM
[11] = molecular target: Bromodomain-containing protein 3 (Homo sapiens) (UniProt Q15059); conditions: Compound concentration 10.0 uM, Protein concentration 2.0 uM
[12] = molecular target: Histone-lysine N-methyltransferase ASH1L (Homo sapiens) (UniProt Q9NR48); conditions: Compound concentration 10.0 uM, Protein concentration 2.0 uM
CREB-binding protein [13] = molecular target: T1, CREB-binding protein (Homo sapiens, UniProt Q92793); assay: Alphascreen assay. Binding to CREBBPA (domain start/stop: R1081-G1197) by alphascreen assay
[14] = molecular target: Nuclear body protein SP140 (Homo sapiens) (UniProt Q13342); conditions: Compound concentration 10.0 uM, Protein concentration 2.0 uM
[15] = molecular target: Bromodomain adjacent to zinc finger domain protein 2B (Homo sapiens) (UniProt Q9UIF8); conditions: Compound concentration 10.0 uM, Protein concentration 2.0 uM
[16] = molecular target: Transcription initiation factor TFIID subunit 1 (Homo sapiens) (UniProt P21675); conditions: Compound concentration 10.0 uM, Protein concentration 2.0 uM
[17] = molecular target: Histone acetyltransferase KAT2A (Homo sapiens) (UniProt Q92830); conditions: Compound concentration 10.0 uM, Protein concentration 2.0 uM
[18] = molecular target: SWI/SNF-related matrix-associated actin-dependent regulator of chromatin subfamily A member 4 (Homo sapiens) (UniProt P51532); conditions: Compound concentration 10.0 uM, Protein concentration 2.0 uM
[19] = molecular target: ATPase family AAA domain-containing protein 2B (Homo sapiens) (UniProt Q9ULI0); conditions: Compound concentration 10.0 uM, Protein concentration 2.0 uM
[20] = molecular target: Bromodomain and WD repeat-containing protein 1 (Homo sapiens) (UniProt Q9NSI6); conditions: Compound concentration 10.0 uM, Protein concentration 2.0 uM
[21] = molecular target: Protein polybromo-1 (Homo sapiens) (UniProt Q86U86); assay: Thermal Shift Assay. Domain start/stop: R487-D598; conditions: Compound concentration 10.0 uM, Protein concentration 2.0 uM
[22] = molecular target: PH-interacting protein (Homo sapiens) (UniProt Q8WWQ0); conditions: Compound concentration 10.0 uM, Protein concentration 2.0 uM
[23] = molecular target: Protein polybromo-1 (Homo sapiens) (UniProt Q86U86); conditions: Compound concentration 10.0 uM, Protein concentration 2.0 uM; remark: listed apart in the source
[24] = molecular target: Bromodomain-containing protein 3 (Homo sapiens) (UniProt Q15059); assay: Thermal Shift Assay. Domain start/stop: P24-E144; conditions: Compound concentration 10.0 uM, Protein concentration 2.0 uM
[25] = molecular target: T2, Bromodomain-containing protein 4 (Homo sapiens, UniProt O60885); assay: Alphascreen assay. Binding to BRD4A (domain start/stop: N44-E168) by alphascreen assay
[26] = molecular target: Bromodomain-containing protein 1 (Homo sapiens) (UniProt O95696); conditions: Compound concentration 10.0 uM, Protein concentration 2.0 uM
[27] = molecular target: T2, Bromodomain-containing protein 4; conditions: Compound concentration 10.0 uM, Protein concentration 2.0 uM
[28] = molecular target: ATPase family AAA domain-containing protein 2 (Homo sapiens) (UniProt Q6PL18); conditions: Compound concentration 10.0 uM, Protein concentration 2.0 uM
[29] = molecular target: Bromodomain-containing protein 2 (Homo sapiens) (UniProt P25440); conditions: Compound concentration 10.0 uM, Protein concentration 2.0 uM
[30] = molecular target: Nuclear body protein SP140-like protein (Homo sapiens) (UniProt Q9H930); conditions: Compound concentration 10.0 uM, Protein concentration 2.0 uM
[31] = molecular target: Bromodomain adjacent to zinc finger domain protein 2A (Homo sapiens) (UniProt Q9UIF9); conditions: Compound concentration 10.0 uM, Protein concentration 2.0 uM
[32] = molecular target: Protein polybromo-1 (Homo sapiens) (UniProt Q86U86); conditions: Compound concentration 10.0 uM, Protein concentration 2.0 uM; remark: listed apart in the source
[33] = molecular target: Protein polybromo-1 (Homo sapiens) (UniProt Q86U86); conditions: Compound concentration 10.0 uM, Protein concentration 2.0 uM; remark: listed apart in the source
[34] = molecular target: Transcription initiation factor TFIID subunit 1 (Homo sapiens) (UniProt P21675); conditions: Compound concentration 10.0 uM, Protein concentration 2.0 uM; remark: listed apart in the source
[35] = molecular target: Histone acetyltransferase KAT2B (Homo sapiens) (UniProt Q92831); conditions: Compound concentration 10.0 uM, Protein concentration 2.0 uM
[36] = molecular target: Bromodomain-containing protein 2 (Homo sapiens) (UniProt P25440); conditions: Compound concentration 10.0 uM, Protein concentration 2.0 uM; remark: listed apart in the source
Peregrin (Homo sapiens) = Peregrin (Homo sapiens) (UniProt P55201); conditions: Compound concentration 10.0 uM, Protein concentration 2.0 uM
CREB-binding protein [37] = molecular target: T1, CREB-binding protein; conditions: Compound concentration 10.0 uM, Protein concentration 2.0 uM
Target sequence in this assay (Q92793 2-2442 limits assumed): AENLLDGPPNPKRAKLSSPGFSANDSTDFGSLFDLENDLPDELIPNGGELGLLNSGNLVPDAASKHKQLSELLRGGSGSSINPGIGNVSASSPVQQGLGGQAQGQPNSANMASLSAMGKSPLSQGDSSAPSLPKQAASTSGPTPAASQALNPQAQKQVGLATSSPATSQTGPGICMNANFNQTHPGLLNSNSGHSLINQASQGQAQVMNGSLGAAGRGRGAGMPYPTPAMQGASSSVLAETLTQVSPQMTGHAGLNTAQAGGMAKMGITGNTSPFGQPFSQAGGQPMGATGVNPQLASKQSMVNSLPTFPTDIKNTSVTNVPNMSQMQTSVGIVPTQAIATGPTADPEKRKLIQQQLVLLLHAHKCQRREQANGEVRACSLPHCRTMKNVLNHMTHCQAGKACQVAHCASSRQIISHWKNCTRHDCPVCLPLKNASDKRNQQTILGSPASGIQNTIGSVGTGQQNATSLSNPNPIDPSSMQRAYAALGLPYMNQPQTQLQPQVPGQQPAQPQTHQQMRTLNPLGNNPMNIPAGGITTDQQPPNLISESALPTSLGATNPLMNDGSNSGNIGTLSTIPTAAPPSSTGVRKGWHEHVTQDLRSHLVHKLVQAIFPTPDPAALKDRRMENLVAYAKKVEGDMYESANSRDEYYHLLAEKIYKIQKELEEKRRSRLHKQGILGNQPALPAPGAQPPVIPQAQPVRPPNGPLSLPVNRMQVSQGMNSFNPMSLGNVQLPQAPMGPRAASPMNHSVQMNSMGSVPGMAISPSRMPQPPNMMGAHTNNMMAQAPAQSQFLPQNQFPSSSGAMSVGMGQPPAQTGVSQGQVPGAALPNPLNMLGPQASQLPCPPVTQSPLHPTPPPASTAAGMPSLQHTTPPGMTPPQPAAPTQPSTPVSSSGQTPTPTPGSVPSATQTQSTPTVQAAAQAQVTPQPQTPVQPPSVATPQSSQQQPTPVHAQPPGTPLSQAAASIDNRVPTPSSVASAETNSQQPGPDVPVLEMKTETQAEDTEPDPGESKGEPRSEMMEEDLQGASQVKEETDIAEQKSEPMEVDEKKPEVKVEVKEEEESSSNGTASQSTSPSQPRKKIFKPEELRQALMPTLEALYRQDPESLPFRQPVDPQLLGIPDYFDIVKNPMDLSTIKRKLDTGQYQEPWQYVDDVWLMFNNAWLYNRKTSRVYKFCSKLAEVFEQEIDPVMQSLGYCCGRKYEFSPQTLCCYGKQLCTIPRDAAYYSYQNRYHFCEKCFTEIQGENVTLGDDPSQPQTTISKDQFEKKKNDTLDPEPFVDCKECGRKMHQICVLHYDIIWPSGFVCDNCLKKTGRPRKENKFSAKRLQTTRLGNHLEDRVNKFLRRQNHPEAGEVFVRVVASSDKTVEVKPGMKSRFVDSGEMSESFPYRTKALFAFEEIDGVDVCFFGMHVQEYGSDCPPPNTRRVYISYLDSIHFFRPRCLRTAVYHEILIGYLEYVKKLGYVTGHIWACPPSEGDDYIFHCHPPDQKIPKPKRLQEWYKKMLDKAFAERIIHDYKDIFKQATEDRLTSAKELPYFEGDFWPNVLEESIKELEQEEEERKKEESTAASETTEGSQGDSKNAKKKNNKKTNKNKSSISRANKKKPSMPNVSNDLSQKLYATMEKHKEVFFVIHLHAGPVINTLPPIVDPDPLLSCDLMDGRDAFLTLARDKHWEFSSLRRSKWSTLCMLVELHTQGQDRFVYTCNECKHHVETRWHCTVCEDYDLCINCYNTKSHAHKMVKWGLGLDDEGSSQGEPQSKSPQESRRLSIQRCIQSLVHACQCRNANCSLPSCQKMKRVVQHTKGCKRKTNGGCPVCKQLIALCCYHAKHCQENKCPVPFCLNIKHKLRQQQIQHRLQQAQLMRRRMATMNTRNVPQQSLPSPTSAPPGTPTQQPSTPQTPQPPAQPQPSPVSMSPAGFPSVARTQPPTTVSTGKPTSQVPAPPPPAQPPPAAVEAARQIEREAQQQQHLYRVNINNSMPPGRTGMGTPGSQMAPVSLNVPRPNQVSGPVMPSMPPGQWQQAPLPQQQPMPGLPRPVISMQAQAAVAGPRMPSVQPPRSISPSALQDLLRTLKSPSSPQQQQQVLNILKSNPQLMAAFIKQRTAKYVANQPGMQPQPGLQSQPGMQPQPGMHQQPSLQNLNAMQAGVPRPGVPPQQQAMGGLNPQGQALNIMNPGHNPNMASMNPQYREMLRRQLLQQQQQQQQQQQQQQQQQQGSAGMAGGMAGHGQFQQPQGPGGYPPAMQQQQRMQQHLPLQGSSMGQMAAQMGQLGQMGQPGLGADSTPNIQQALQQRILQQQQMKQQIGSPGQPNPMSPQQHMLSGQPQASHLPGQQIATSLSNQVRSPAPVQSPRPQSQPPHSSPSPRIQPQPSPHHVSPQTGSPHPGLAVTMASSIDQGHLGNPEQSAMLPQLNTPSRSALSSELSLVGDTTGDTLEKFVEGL

[38] = molecular target: Histone acetyltransferase p300 (Homo sapiens) (UniProt Q09472); conditions: Compound concentration 10.0 uM, Protein concentration 2.0 uM
[39] = molecular target: Transcription intermediary factor 1-alpha (Homo sapiens) (UniProt O15164); conditions: Compound concentration 10.0 uM, Protein concentration 2.0 uM
[40] = molecular target: Transcription intermediary factor 1-beta (Homo sapiens) (UniProt Q13263); conditions: Compound concentration 10.0 uM, Protein concentration 2.0 uM
[41] = molecular target: PH-interacting protein (Homo sapiens) (UniProt Q8WWQ0); conditions: Compound concentration 50.0 uM, Protein concentration 0.025 uM
[42] = molecular target: Bromodomain adjacent to zinc finger domain protein 1A (Homo sapiens) (UniProt Q9NRL2); conditions: Compound concentration 10.0 uM, Protein concentration 2.0 uM
[43] = molecular target: Bromodomain testis-specific protein (Homo sapiens) (UniProt Q58F21); conditions: Compound concentration 10.0 uM, Protein concentration 2.0 uM; remark: listed apart in the source
[44] = molecular target: Bromodomain and WD repeat-containing protein 3 (Homo sapiens) (UniProt Q6RI45); conditions: Compound concentration 10.0 uM, Protein concentration 2.0 uM
[45] = molecular target: Protein polybromo-1 (Homo sapiens) (UniProt Q86U86); assay: Thermal Shift Assay. Domain start/stop: H23-D159; conditions: Compound concentration 10.0 uM, Protein concentration 2.0 uM

Chain of Bromodomain-containing protein 3 (Homo sapiens) (Q15059 2-726 limits assumed): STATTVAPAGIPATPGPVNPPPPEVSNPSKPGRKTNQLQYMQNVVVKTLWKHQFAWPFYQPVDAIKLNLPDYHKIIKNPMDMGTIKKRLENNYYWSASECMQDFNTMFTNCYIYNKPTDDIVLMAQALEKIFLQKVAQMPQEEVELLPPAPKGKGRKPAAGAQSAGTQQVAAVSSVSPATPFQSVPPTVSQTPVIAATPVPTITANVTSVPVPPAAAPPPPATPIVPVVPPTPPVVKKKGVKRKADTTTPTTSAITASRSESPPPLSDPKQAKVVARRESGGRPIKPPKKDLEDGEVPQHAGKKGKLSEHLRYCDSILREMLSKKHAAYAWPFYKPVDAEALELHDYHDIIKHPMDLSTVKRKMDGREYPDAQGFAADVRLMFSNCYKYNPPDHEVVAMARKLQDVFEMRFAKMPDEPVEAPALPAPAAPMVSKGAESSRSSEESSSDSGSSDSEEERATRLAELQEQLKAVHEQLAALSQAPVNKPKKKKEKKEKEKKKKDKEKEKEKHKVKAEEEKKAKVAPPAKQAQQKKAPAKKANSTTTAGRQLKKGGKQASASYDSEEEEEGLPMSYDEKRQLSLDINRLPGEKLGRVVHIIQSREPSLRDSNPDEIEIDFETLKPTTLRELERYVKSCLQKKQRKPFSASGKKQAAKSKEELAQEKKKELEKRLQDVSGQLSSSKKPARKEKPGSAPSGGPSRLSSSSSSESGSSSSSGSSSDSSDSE
Chain of Protein polybromo-1 (Homo sapiens) (Q86U86 whole entry): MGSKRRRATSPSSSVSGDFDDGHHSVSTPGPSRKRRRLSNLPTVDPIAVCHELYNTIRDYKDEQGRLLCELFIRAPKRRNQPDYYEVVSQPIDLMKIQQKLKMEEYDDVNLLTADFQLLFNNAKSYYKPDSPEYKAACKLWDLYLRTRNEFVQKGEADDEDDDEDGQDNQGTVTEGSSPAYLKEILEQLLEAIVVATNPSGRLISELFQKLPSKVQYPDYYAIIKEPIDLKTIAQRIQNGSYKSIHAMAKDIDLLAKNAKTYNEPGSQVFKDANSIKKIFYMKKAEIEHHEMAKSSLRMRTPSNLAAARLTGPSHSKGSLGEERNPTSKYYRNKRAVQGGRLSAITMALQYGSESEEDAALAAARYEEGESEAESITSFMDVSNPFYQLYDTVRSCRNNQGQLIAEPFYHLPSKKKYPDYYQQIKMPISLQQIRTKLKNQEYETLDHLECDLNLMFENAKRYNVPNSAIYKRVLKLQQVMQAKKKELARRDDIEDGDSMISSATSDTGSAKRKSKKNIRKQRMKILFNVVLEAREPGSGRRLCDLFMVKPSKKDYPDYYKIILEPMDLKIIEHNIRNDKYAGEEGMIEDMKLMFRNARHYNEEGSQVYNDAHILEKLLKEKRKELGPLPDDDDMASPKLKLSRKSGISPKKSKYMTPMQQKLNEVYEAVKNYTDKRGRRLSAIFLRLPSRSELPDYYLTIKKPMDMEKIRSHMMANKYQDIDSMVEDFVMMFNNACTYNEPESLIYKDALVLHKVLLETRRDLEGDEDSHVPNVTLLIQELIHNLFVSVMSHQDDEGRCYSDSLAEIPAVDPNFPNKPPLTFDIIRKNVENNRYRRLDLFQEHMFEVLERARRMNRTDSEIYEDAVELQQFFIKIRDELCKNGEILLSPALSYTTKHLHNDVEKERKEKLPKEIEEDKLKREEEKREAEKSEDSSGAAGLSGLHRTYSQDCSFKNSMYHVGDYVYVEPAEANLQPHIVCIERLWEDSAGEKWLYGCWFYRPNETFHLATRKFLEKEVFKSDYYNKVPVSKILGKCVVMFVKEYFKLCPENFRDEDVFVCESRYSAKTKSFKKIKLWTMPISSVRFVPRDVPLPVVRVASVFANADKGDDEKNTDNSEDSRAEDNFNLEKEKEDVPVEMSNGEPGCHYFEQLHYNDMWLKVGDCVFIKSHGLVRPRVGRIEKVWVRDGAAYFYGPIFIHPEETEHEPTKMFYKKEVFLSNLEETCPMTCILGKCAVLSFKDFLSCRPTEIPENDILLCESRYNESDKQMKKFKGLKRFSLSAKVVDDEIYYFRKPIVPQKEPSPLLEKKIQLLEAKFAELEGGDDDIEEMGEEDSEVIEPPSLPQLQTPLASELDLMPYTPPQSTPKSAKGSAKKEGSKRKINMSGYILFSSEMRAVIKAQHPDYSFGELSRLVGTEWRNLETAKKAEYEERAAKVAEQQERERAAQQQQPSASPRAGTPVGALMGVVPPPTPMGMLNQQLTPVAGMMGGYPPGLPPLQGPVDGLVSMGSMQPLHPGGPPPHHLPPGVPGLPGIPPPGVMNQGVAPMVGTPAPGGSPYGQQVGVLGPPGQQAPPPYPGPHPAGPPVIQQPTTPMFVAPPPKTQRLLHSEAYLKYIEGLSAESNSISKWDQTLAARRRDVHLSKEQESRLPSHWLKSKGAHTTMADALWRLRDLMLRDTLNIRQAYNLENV

CCC(=O)N1CCOc2c(cc(-c3ccc(OC)c(OC)c3)cc2OC[C@H]2CCCN(C)C2)C1
ΔTm [1]: 0.93 °C | ΔTm [2]: 0.65 °C | ΔTm [3]: 0.53 °C | ΔTm [4]: 0.92 °C | ΔTm [5]: 0.3 °C | ΔTm [6]: 0.19 °C | ΔTm [7]: 0.75 °C | ΔTm [8]: 0.65 °C | ΔTm [9]: 0.73 °C | ΔTm [10]: 0.59 °C | ΔTm [11]: 1.01 °C and 1.27 °C | ΔTm [12]: 0.59 °C | IC50 (CREB-binding protein [13]): 0.324 µM | ΔTm [14]: 0.16 °C | ΔTm [15]: 0.11 °C and 0.34 °C | ΔTm [16]: 0.18 °C | ΔTm [17]: 0.84 °C | ΔTm [18]: 0.56 °C | ΔTm [19]: 0.16 °C | ΔTm [20]: 0.28 °C | ΔTm [21]: 1.11 °C | ΔTm [22]: 1.07 °C | ΔTm [23]: -0.05 °C | ΔTm [24]: 1.35 °C and 2.27 °C | IC50 [25]: 2.46 µM | ΔTm [26]: 0.86 °C | ΔTm [27]: 0.77 °C and 0.68 °C | ΔTm [28]: 0.94 °C | ΔTm [29]: 1.23 °C | ΔTm [30]: 1.3 °C | ΔTm [31]: 0.84 °C | ΔTm [32]: 0.4 °C and 0.01 °C | ΔTm [33]: 0.34 °C | ΔTm [34]: 0.37 °C | ΔTm [35]: -0.01 °C and 0.36 °C | ΔTm [36]: 2.1 °C and 1.08 °C | ΔTm (Peregrin (Homo sapiens)): 0.86 °C | ΔTm (CREB-binding protein [37]): 6.8 °C and 8.01 °C and 8.5 °C | ΔTm [38]: 8.99 °C | ΔTm [39]: 0.77 °C | ΔTm [40]: 0.1 °C | inhibition [41]: 11.6% and 13.1% | ΔTm [42]: 1.83 °C | ΔTm [43]: 0.3 °C | ΔTm [44]: 1.86 °C | ΔTm [45]: 1.87 °C
